The record followed here is patent US20230135524A1, “ARYL HYDANTOIN HETEROCYCLES AND METHODS OF USE” (The United States of America,as represented by the …, priority 2020, published 2023).

Molecules are shown by their SMILES.

This data set in a line: Pharmacokinetics in non-tumor bearing BALB/C mice, IV and PO. The data set is classed as in vivo. The conditions noted are these: for Cmax—D: dose-normalised; for Tmax / half-life: mouse, plasma. On the procedure:
FIG. 14A-B are graphs of time (hours) versus plasma concentration (ng/mL) for intravenous (IV) (FIG. 14A) and oral (PO) (FIG. 14B) administration of 15a and 15n over 12 hours. Error bars represent the standard deviation in ng/mL from three independent mice per time point.
Clearance, Cmax, half life, dose/AUC, and bioavailability were calculated by statistical analysis using PHOENIX™ WINNONLIN™ v7.0 (Certara, Princeton, N.J.). The results are shown in FIGS. 14A and 14B and Table 4.

In general, Tmax refers to the time from dosing to the highest level. Usually half-life stands for how long it takes for the measured level to halve. Lower therefore signals fast loss. Take `CC1(C)C(=O)N(c2ccc(C#N)c(C(F)(F)F)c2)C(=S)N1Cc1ccc(-c2c[nH]nn2)cc1` [Compound 15a, 4-(3-(4-(1H-1,2,3-triazol-4-yl)benzyl)-4,4-dimethyl-5-oxo-2-thioxoimidazolidin-1-yl)-2-(trifluoromethyl)benzonitrile]: under “IV, 1 mg/kg”, the “Cmax—D” value was determined as 453 kg·ng/mL/mg, the time to peak (Tmax) was determined as 2 h and the half-life is 18 h. Moreover, for the setting “PO, 20 mg/kg”, the “Cmax—D” value was 412 kg·ng/mL/mg, the Tmax amounted to 2 h and the half-life is 20.6 h.
